In test [1] the test system is pCRKL in K562 cells. Description: pCRKL ELISA assay in K562 cells. The class given is cell-based. The following applies: Homo sapiens, 1.5 h, 90 minutes incubation, read-out: PCRKL ELISA, Cell Line IC50 (nM) K562. The procedure:
(§1) K562 or Ba/F3 ABL T315I cells (2.0*10^5 cells/100 μl/well) were seeded in 96 well (Corning, cat #3799). Compounds were dissolved in DMSO, serially diluted in DMSO and then were added, mixed, and incubated for 90 minutes at 37° C., 5% CO2. Following the 90-minute incubation, plates were centrifuged for 5 min at 3000 RPM and supernatant was removed from each well. Cells were washed 3 times with 150 μl PBS prior to addition of 100 μl cell RIPA lysis buffer (Boston BioProducts, cat #BP-115D) supplied with 1×complete ULTRA cocktail inhibitor (Roche, 05892791001) and 1×PhosSTOP Phosphatase Inhibitor Cocktail Tablets (Roche, 04906837001). Cells were incubated with lysis buffer for 1 hour at 4° C. prior to storage at −80 C.
(§2) A capture antibody able to detect phosphorylated and non-phosphorylated CRKL (R&D Systems, cat #AF5127) was added to Meso Scale Discovery (MSD) standard bind plates (MSD, cat #L15XA-3) at 5 ug/mL and incubated at 4° C. overnight. The next day, plates were washed with PBS+0.05% Tween20 (PBST) and 150 μl of 5% BSA blocking solution was added for 1 hour at room temperature with shaking. Plates were washed with PBST. Lysates were thawed and 30 μl of lysate was added to the MSD plates and incubated for 2 hours at room temperature with shaking. MSD plates were washed with PBST and 30 μl of a detection antibody that binds phosphorylated pCRKL (R&D Systems, cat #MAB6910) was added at 1 μg/mL to each well. Plates were incubated for 1 hour at room temperature with shaking. Plates were washed with PBST prior to addition of 30 μl of a sulfo tagged goat anti mouse detection antibody (MSD cat #R32AC-1). Plates were incubated for 1 hour at room temperature with shaking. Plates were washed with PBST prior to addition of 150 ul of 1×MSD read buffer T (MSD, cat 4R92TC-2). Electrochemiluminescence (ECLU) was read on an MSD plate reader (Meso Scale Discovery). The remaining activity by calculated as follows: 00 Relative activity=100×(ELCUsample−ECLULC)/(ECLUHC−ECLULC). The low and high controls (LC/HC) are generated from lysate from wells without cells or with cells treated with 0.1% DMSO, respectively. IC50 values were calculated using XLFit software using a nonlinear regression model with a sigmoidal dose response and are shown in Table 4 and Table 5 below.
On the technique in general: An ELISA detects its analyte on a solid surface through an enzyme-linked reagent.

Test [2] addresses T1, ABL1 (Homo sapiens, UniProt P00519).
T1 construct: purchased Carna Biosciences
Description: Luminescence-based ABL kinase assay (ADP-Glo, 300 μM ATP). The class given is biochemical. The procedure, abridged:
(§3)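 Buffer: 50 mM HEPES pH 7.5, 10 mM MgCl2, 1 mM EGTA, 2 mM DTT, 0.05% BSA. Compound preincubated 30 min at RT with kinase (3.325 nM in enzyme solution), then started with a Peptide 2 (6 μM) and ATP (1.2 mM) solution, both stock levels; 90 min at RT.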
For orientation: ADP-Glo first removes unused ATP, then detects ADP through luciferase.

The target of test [3] is ABL1 (T315I) (Homo sapiens, UniProt P00519, T315I). Description: Luminescence-based ABL kinase assay (ADP-Glo, 300 μM ATP), T315I mutant. The format is biochemical. The procedure, abridged: as §3
Test [4] concerns K562 cells. Description: K562 cell proliferation assay (CellTiter-Glo). The class given is cell-based. The note with it: Homo sapiens, K562, 72 h, CellTiter-Glo viability, read-out: Cell Line (IC50, nM) K562. The procedure, abridged: (§4)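 Cells in IMDM/10% FBS seeded at 2,000 (K562) or 1,500 (HL60) per well, exposed to serially diluted compounds for 72 h at 37 °C, 5% CO2. Viability by CellTiter-Glo luminescence, normalized between DMSO (high) and cell-free media (low) controls.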
(In general: ATP-based viability assays read luminescence as a measure of living cells.)

Test [5] concerns pCRKL in Ba/F3 ABL1 (T315I) cells. Description: pCRKL ELISA assay in Ba/F3 ABL T315I cells. The class given is cell-based. The note with it: Mus musculus, BaF3, 1.5 h, 90 minutes incubation, read-out: pCRKL ELISA, Cell Line IC50 (nM) Ba/F3 ABL1 (T315I). On the procedure:
as §1, §2

For test [6], the system named is HL60 cells. Description: HL60 cell proliferation assay (CellTiter-Glo). The class given is cell-based. The following applies: Homo sapiens, HL-60, 72 h, CellTiter-Glo viability, read-out: Cell Line (IC50, nM) HL60. The gist of the method: as §4

`COc1cccc(OC)c1-c1c[nH]c2nc(NC(=O)C3CC3CN3CCNCC3)ccc12` (single isomer, unassigned) [Example S150, Enantiomer 1, N-[3-(2,6-dimethoxyphenyl)-1H-pyrrolo[2,3-b]pyridin-6-yl]-2-(piperazin-1-ylmethyl)cyclopropane-1-carboxamide]: the IC50 in test [1] was 453 nM; in test [2], 5.42 nM; in test [3] it was 1.73 nM; in test [4], 40.5 nM; in test [5], 1460 nM.
In the case of `COc1nc2ncsc2cc1-c1c[nH]c2nc(NC(=O)[C@@H]3C[C@@H]3F)ccc12` [Compound 146, (1S,2S)-2-fluoro-N-(3-[5-methoxy-[1,3]thiazolo[4,5-b]pyridin-6-yl]-1H-pyrrolo[2,3-b]pyridin-6-yl)cyclopropane-1-carboxamide], the IC50 was 32 nM in test [1]; 3.74 nM in test [2]; 14 nM in test [3]; above 10000 nM in test [6]; 9.9 nM in test [4]; 112 nM in test [5].
Consider `COc1cc2ncsc2cc1-c1c[nH]c2nc(NC(=O)[C@@H]3C[C@@H]3F)ccc12` [Compound 86, (1S,2S)-2-fluoro-N-(3-(5-methoxybenzo[d]thiazol-6-yl)-1H-pyrrolo[2,3-b]pyridin-6-yl)cyclopropane-1-carboxamide], for which the IC50 was 5.97 nM in test [2]; 5.48 nM in test [3]; above 10000 nM in test [6]; 30.5 nM in test [4]; 84.2 nM in test [5].
For `COc1cc2[nH]ncc2cc1-c1c[nH]c2nc(NC(=O)[C@H]3C[C@H]3F)ccc12` [Compound 53, (1R,2R)-2-fluoro-N-[3-(6-methoxy-1H-indazol-5-yl)-1H-pyrrolo[2,3-b]pyridin-6-yl]cyclopropane-1-carboxamide], the IC50 came out at 584 nM in test [1]; 6.92 nM in test [2]; 5.63 nM in test [3]; 3110 nM in test [6]; 267 nM in test [4].
On the same counts, the results for `COc1c(-c2c[nH]c3nc(NC(=O)[C@H]4C[C@H]4F)ccc23)ccc2[nH]cnc12` [Compound 51, (1R,2R)-2-fluoro-N-[3-(4-methoxy-1H-1,3-benzodiazol-5-yl)-1H-pyrrolo[2,3-b]pyridin-6-yl]cyclopropane-1-carboxamide] are 1350 nM, 15.4 nM, 4.41 nM, above 10000 nM and 668 nM.
With `COc1ncc(F)c(OC)c1-c1c[nH]c2nc(NC(=O)NCCN3CCN(C)CC3)ccc12` [Compound 116, 3-[3-(5-fluoro-2,4-dimethoxypyridin-3-yl)-1H-pyrrolo[2,3-b]pyridin-6-yl]-1-[2-(4-methylpiperazin-1-yl)ethyl]urea], the IC50 in test [2] is 49.4 nM; in test [3], 59.3 nM; in test [6], above 10000 nM; in test [4], 142 nM; in test [5] it was 1060 nM.
Turning to `CCOc1ncccc1-c1c[nH]c2nc(NC(=O)C3CC3)ccc12` [Compound 47, N-[3-(2-ethoxypyridin-3-yl)-1H-pyrrolo[2,3-b]pyridin-6-yl]cyclopropanecarboxamide], the IC50 in test [1] is 685 nM; in test [2] it was 7.47 nM; in test [3] it was 0.705 nM; in test [6] it was above 10000 nM; in test [4], 292 nM.
On the same counts, the results for `COc1cc2[nH]cnc2cc1-c1c[nH]c2nc(NC(=O)[C@H]3C[C@H]3F)ccc12` [Compound 52, (1R,2R)-2-fluoro-N-[3-(6-methoxy-1H-1,3-benzodiazol-5-yl)-1H-pyrrolo[2,3-b]pyridin-6-yl]cyclopropane-1-carboxamide] are 3120 nM, 8.95 nM, 13.7 nM, above 10000 nM and 829 nM.
The like results for `COc1cc2[nH]ncc2cc1-c1n[nH]c2nc(NC(=O)[C@@H]3C[C@@H]3F)ccc12` [Compound 82, (1S,2S)-2-fluoro-N-[3-(6-methoxy-1H-indazol-5-yl)-1H-pyrazolo[3,4-b]pyridin-6-yl]cyclopropane-1-carboxamide] were, in that order, 1050 nM, 13.5 nM, 20.5 nM, above 10000 nM and 437 nM.
The like results for `COc1ccccc1-c1n[nH]c2nc(NC(=O)C3CC3)ccc12` [Compound 44, N-[3-(2-methoxyphenyl)-1H-pyrazolo[3,4-b]pyridin-6-yl]cyclopropanecarboxamide] were, in that order, 275 nM, 23.1 nM, 39.8 nM, above 10000 nM and 151 nM.
On to `COc1ncccc1-c1c[nH]c2nc(NC(=O)[C@H]3C[C@H]3F)ccc12` [Compound 26, (1R,2R)-2-fluoro-N-(3-(2-methoxypyridin-3-yl)-1H-pyrrolo[2,3-b]pyridin-6-yl)cyclopropane-1-carboxamide], for which the IC50 is 680 nM in test [1]; 62.9 nM in test [2]; 68.4 nM in test [3]; above 10000 nM in test [6]; 220 nM in test [4].
The like results for `COc1ncc(F)cc1-c1n[nH]c2nc(NC(=O)[C@@H]3C[C@@H]3F)ccc12` [Compound 74, (1S,2S)-2-fluoro-N-[3-(5-fluoro-2-methoxypyridin-3-yl)-1H-pyrazolo[3,4-b]pyridin-6-yl]cyclopropane-1-carboxamide] were, in that order, 572 nM, 55.6 nM, 63 nM, above 10000 nM and 351 nM.
On the same counts, the results for `CCOc1ncccc1-c1c[nH]c2nc(NC(=O)[C@H]3C[C@H]3F)ccc12` [Compound 63, (1R,2R)—N-(3-(2-ethoxypyridin-3-yl)-1H-pyrrolo[2,3-b]pyridin-6-yl)-2-fluorocyclopropane-1-carboxamide] are 328 nM, 40.7 nM, 64.5 nM, above 10000 nM and 255 nM.
Regarding `COc1cccc(OC)c1-c1c[nH]c2nc(NC(=O)NCCN3CCN(C)CC3)ccc12` [Compound 117, 3-[3-(2,6-dimethoxyphenyl)-1H-pyrrolo[2,3-b]pyridin-6-yl]-1-[2-(4-methylpiperazin-1-yl)ethyl]urea], the IC50 is 11.3 nM in test [2]; 9.08 nM in test [3]; above 10000 nM in test [6]; 67.1 nM in test [4]; 124 nM in test [5].
Consider `COc1c(-c2c[nH]c3nc(NC(=O)[C@@H]4C[C@@H]4F)ccc23)cc2scnc2c1F` [Compound 133, (1S,2S)-2-fluoro-N-[3-(4-fluoro-5-methoxy-1,3-benzothiazol-6-yl)-1H-pyrrolo[2,3-b]pyridin-6-yl]cyclopropane-1-carboxamide], for which the IC50 was determined as 278 nM in test [1]; 3.57 nM in test [2]; 6.1 nM in test [3]; 4040 nM in test [6]; 9.36 nM in test [4].
`COc1ccccc1-c1c[nH]c2nc(NC(=O)[C@@H]3C[C@@H]3F)ccc12` [Compound 3, (1S,2S)-2-fluoro-N-(3-(2-methoxyphenyl)-1H-pyrrolo[2,3-b]pyridin-6-yl)cyclopropane-1-carboxamide]: the IC50 was 174 nM in test [1]; 8.17 nM in test [2]; 0.896 nM in test [3]; above 10000 nM in test [6]; 80.3 nM in test [4].

For the origin of these results see patent US20240043420A1, “7-AZAINDOLE COMPOUNDS FOR INHIBITION OF BCR-ABL TYROSINE KINASES” (EnLiven Therapeutics, Inc., priority 2020, published 2024).
